Source: ChEMBL document CHEMBL1122802, “Pyrido[3',2':4,5]thieno[3,2-d]-N-triazines: a new series of orally active antiallergic agents” (J Med Chem, 1984)
pIC50: −log10 of the molar value.

Key:
[1] = tested on: Rattus norvegicus; experiment: Inhibition of passive cutaneous anaphylaxis (PCA) in the rat at 25 mg /kg.(orally); type: functional; conditions: po
[2] = species on record: Rattus norvegicus; experiment: Effective dose required for inhibition of passive cutaneous anaphylaxis (PCA) in the rat at multiple dose levels; type: functional
[3] = species on record: Rattus norvegicus; experiment: Evaluated on antigen induced release of histamine (AIR) in vitro from rat peritoneal mast cells (RMC) at multiple dose levels; type: functional, cell-based; conditions: Mast cell, read-out: I 50
[4] = tested on: Rattus norvegicus; experiment: Percent inhibition of antigen induced release of histamine (AIR) in vitro from rat peritoneal mast cells (RMC) […].; type: functional
[5] = tested on: Rattus norvegicus; experiment: Percent inhibition of antigen induced release of histamine (AIR) in vitro from rat peritoneal mast cells (RMC) […]; type: functional
[6] = tested on: Rattus norvegicus; experiment: Inhibition of passive cutaneous anaphylaxis (PCA) in the rat at 30 mg /kg.(orally); type: functional; conditions: po

| SMILES | pIC50 [3] | inhibition in vivo at 25 mg/kg [1] [%] | ED50 [2] [mg/kg] | I [4] [%] | I [5] [%] | inhibition in vivo at 30 mg/kg [6] [%] |
| --- | --- | --- | --- | --- | --- | --- |
| Cc1cc(C)c2c(n1)sc1c(O)nnnc12 | 4.10 | 70 | 3.6 |  |  |  |
| COC(=O)NNc1nnnc2c1sc1nc(C)ccc12 |  | 5 |  | 21 |  |  |
| CSc1nnnc2c1sc1nc(C)ccc12 |  |  |  |  | 4 |  |
| Cc1ccc2c(n1)sc1cnnnc12 | 4.54 | 93 | 1.5 |  |  |  |
| Oc1nnnc2c1sc1nc(-c3ccccc3)ccc12 | 7.30 |  | 3 |  |  | 68 |
| CCOc1nnnc2c1sc1nc(C)ccc12 |  | 52 | 27 |  | 18 |  |
| CCOCOc1nnnc2c1sc1nc(C)ccc12 | 5.22 | 22 |  |  |  |  |

Now from value to molecule, other results behind:

| pIC50 [3] | SMILES | inhibition in vivo at 25 mg/kg [1] [%] | ED50 [2] [mg/kg] | I [4] [%] | I [5] [%] | inhibition in vivo at 30 mg/kg [6] [%] |
| --- | --- | --- | --- | --- | --- | --- |
| 6.60 | Cc1ccc2c(n1)sc1c(O)nnnc12 | 88 | 5.2 |  |  |  |
| 5.77 | Cc1ccc2c(n1)sc1c(N)nnnc12 | 38 |  |  |  |  |
| 4.96 | CNc1nnnc2c1sc1nc(C)ccc12 | 32 |  |  |  |  |
| 7.00 | Cc1ccc2c(n1)sc1c(S)nnnc12 |  |  |  |  |  |
